Results on 13 compounds are retold here after patent publication US6818765B1, “Benzene-sulphonamide derivatives and their uses” (Universite de Liege, priority 1999, dated 2004).

Test [1] has as its target T1, thromboxane A2 receptors (TPα) of human platelets (Homo sapiens, UniProt P21731).
T1 construct: endogenous in cells; host or cells: human platelets
T1 sequence (P21731 1-343): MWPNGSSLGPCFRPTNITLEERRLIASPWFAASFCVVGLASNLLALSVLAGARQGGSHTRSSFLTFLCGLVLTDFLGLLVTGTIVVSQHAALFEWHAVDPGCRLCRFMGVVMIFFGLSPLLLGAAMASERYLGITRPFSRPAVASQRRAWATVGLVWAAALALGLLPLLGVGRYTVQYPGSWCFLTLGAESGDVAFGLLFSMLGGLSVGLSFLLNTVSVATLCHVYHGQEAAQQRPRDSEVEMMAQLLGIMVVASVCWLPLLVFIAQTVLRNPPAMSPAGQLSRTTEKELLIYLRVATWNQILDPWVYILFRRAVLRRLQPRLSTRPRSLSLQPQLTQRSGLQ
The test can be described thus: Binding test: displacement of [3H]SQ-29.548 from human platelet thromboxane A2 receptors. The following applies: for inhibition at 1 µM: read-out: Affinity: percent of [3H]SQ-29.548 specifically substituted by the examined compound, compound 10^-6 M; for inhibition at 0.1 µM: read-out: Affinity: percent of [3H]SQ-29.548 specifically substituted by the examined compound, compound 10^-7 M. From the text:
To operate a first selection, the capacity of these compounds to displace in a specific way a tritium ligand, the [^3H]
Cozzi P., Giordani A., Menichincheri M., Pillan A., Pinciroli V., Rossi A., Tonani R., Volpi D., Tamburin M., Ferrario R., Fusar D., Salvati P.,—Agents combining thromboxane receptor antagonism with thromboxane synthase inhibition:[[[2-(1H-imidazol-1-yl)ethylidene]amino]oxy]alkanoic acids.—J. Med. Chem., 1994, 37, 3588-3604.

Test [2] addresses T2, TPτ thromboxan A2 receptors (Rattus norvegicus, UniProt P34978).
T2 construct: Two tests on smooth musculature have allowed to confirm the antagonist potency on the TPτ thromboxan A2 receptors; from tissue; host or cells: isolated rat aorta; isolated rat stomach fundus
T2 sequence (P34978 1-341): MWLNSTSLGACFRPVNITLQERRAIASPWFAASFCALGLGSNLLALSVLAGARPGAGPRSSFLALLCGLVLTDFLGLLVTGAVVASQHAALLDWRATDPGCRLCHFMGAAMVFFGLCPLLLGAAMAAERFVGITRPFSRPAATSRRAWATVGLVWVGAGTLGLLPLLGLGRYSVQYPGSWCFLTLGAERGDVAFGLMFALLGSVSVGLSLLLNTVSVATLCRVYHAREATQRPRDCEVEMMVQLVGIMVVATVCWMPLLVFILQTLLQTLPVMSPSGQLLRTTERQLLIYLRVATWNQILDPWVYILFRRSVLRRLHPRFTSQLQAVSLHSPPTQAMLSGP
Kind of test: Rat aorta contraction test (relaxation of aorta precontracted by U-46619). The settings on record: tonus induced by U-46619 (0.03 μM); read-out: IC 50: concentration reducing by 50% the Rat Aorta muscular tonus. From the text:
(§1) Two tests on smooth musculature have allowed to confirm the antagonist potency on the TPτ thromboxan A2 receptors. Indeed, the capacity of the selected compounds during the binding to prevent the contraction of the rat fundus induced by I′U-46619 and to relax the rat aorta precontracted by this same stable agonist of the TXA2 have been evaluated;
Test desribed according to:
de Tullio P., Pirotte B., Lebrun P., Fontaine J., Dupont L., Antoine M. H., Ouedraogo R., Khelili S., Maggetto C., Masereel B., Diouf O., Podona T., Delarge J., 3-and -4-substituted 4H-pyrido[4,3-e]-1,2,4-thiadiazine 1,1-dioxides as potassium channels openers: synthesis pharmacological evaluation, and structure-activity relationships.—J. Med. Chem., 1996, 39, 937-948.

Test [3] concerns the target T2, TPτ thromboxan A2 receptors. The test can be described thus: Test for preventing the rat fundus contraction induced by U-46619. The settings on record: contraction caused by 5 μg of U-46619; read-out: IC 50: concentration reducing of 50% of maximum contraction amplitude of rat fundus.
Excerpt: as §1
Test description according to:
Harris N., Greenberg R., Phillips M. B., Michel I. M., Goldenberg H. J., Haslanger M. F., Steinbacher T.E.,—Effects of SQ-27,427, a thromboxane A2 receptor antagonist, in the human platelet and isolated smooth muscle.—Eur. J. Pharmacol., 1984, 103, 9-18.

Test [4] concerns Human Platelets aggregation. The test can be described thus: Human platelet aggregation test induced by arachidonic acid or U-46619. The format is cell-based. From the text: The TXA2 antagonist potency of the selected compounds has been evaluated by a platelet aggregation test induced by the U-46619 (stable agonist of the thromboxan A2) or by the arachidonic acid.
Test described according to:
Born G.V.R., Cross M. J.,—The aggregation of blood platelets.—J. Physiol., 1963, 168, 178-195.
Tsuyoshi T., Masayuki Y., Shuichi W., Kazuhiro K., Takashi Y.,—Designe, synthesis, and pharmacology of 3-substituted sodium azulene—1 sulfonates and related compounds: Non-prostaboid thromboxane A2 receptor antagonists.—J. Med. Chem., 1993, 36, 791-800.

Setting [5] is: Platelet, aggregation induced by 30 nM of U-46619, read-out: IC 50 platelet aggregation, U-46.619.
The mark [6] stands for this setting: Platelet, aggregation induced by arachidonic acid, read-out: IC 50 platelet aggregation, ARACHIDONIC ACID.

Where two headings read alike, the source gives them in different places.

Consider `O=C(NC1CCCCC1)NS(=O)(=O)c1cc([N+](=O)[O-])ccc1NC1CCCCC1` [Compound 17], for which, in test [1], the IC50 was 22.7 nM, the inhibition at 1 µM was determined as 100% and the inhibition at 0.1 µM stood at 88%. For the same compound, the IC50 in test [2] was 1.38 nM.
Regarding `Cc1cccc(Nc2ccc([N+](=O)[O-])cc2S(=O)(=O)NC(=NC#N)N2CCCCCC2)c1` [Compound 18, N-cyano-N′-[(2-metatoluylamin-5-nitrobenzene)sulfonyl]homopiperidinoamidine], the IC50 came out at 70 nM in test [3]; 24.2 nM in test [1]; 480 nM in test [4] (setting [5]); 360 nM in test [4] (setting [6]); 1.21 nM in test [2]. In addition, the inhibition at 1 µM in test [1] came out at 100%. The inhibition at 0.1 µM in test [1] was determined as 88.9%.
On to `O=C(NC1CCCCC1)NS(=O)(=O)c1cc([N+](=O)[O-])ccc1NC1CCCCCC1` [Compound 22], for which, in test [1], the IC50 was 41.7 nM, the inhibition at 1 µM turned out to be 100% and the inhibition at 0.1 µM stood at 84.1%. The IC50 in test [2] turned out to be 37.6 nM.
On the same counts, the results for `CC(C)(C)NC(=O)NS(=O)(=O)c1cc([N+](=O)[O-])ccc1NC1CCCCCC1` [Compound 25] are 10.5 nM, 100%, 95.2% and 19.7 nM.
The matching figures for `CC(C)(C)NC(=O)NS(=O)(=O)c1cc([N+](=O)[O-])ccc1NC1CCCCC1` [Compound 29, N-[(2-cyclohexylamin-5-nitrobenzene)sulfonyl]N′-tert-butyl urea]: 7.8 nM, 97.4%, 95.4% and 20.6 nM.
Take `O=[N+]([O-])c1ccc(NC2CCCCCC2)c(S(=O)(=O)NC(=S)NC2CCCCC2)c1` [Compound 40, N-[(2-cycloheptylamin-5-nitrobenzene)sulfonyl]N′-cyclohexyl thiourea]: in test [1], the IC50 was 26.9 nM, the inhibition at 1 µM worked out at 94.4% and the inhibition at 0.1 µM was 63%. Besides, the IC50 in test [2] worked out at 17.7 nM.
With `CCCCCNC(=O)NS(=O)(=O)c1cc(I)ccc1NC1C=CCCC1` (centres unmarked) [Compound 93], in test [1], the IC50 came out at 7.8 nM, the inhibition at 1 µM is 97.9% and the inhibition at 0.1 µM was found to be 90.2%.
Regarding `CCCCCNC(=O)NS(=O)(=O)c1cc([N+](=O)[O-])ccc1Nc1ccccc1C` [Compound 94], the “Affinity: percent of [3H]SQ-29.548 specifically substituted by the examined compound, 10^-6M” value in test [1] stood at 98.4%. For the same compound, in test [1] (read-out: IC 50: concentration required for replacing 50% of [3H]SQ-29.548 bound to receptors TPα), the IC50 was found to be 2.82 nM.
Turning to `CCCCCNC(=O)NS(=O)(=O)c1cc([N+](=O)[O-])ccc1Nc1ccc(C)cc1` [Compound 95], in test [1], the IC50 came out at 1.45 nM and the inhibition at 1 µM worked out at 98.5%.
On the same counts, the results for `CCCCCNC(=O)NS(=O)(=O)c1cc([N+](=O)[O-])ccc1Nc1cccc(C)c1` [Compound 96] are 43.9 nM and 92.3%.
For the compound `CCCCCNC(=O)NS(=O)(=O)c1cc(C#N)ccc1NC1CCCCC1` [Compound 97], in test [1], the IC50 was determined as 98.5 nM and the inhibition at 1 µM worked out at 89.7%.
`O=C(O)CCC/C=C\CC1C2CCC(O2)C1CNNC(=O)Nc1ccccc1` (stereo not drawn) [SQ-29.548, acid [15-[1-alpha,2-beta (5Z),3-beta, 4-alpha]-7-[3-[[2-(phenylamino)carbonyl]hydrazin]methyl]-7-oxabicyclo[2.2.1]hept-2-yl]-5-heptenoic, reference compound]: the IC50 came to 180 nM in test [3]; 34 nM in test [4] (aggregation induced by 30 nM of U-46619, read-out: IC 50 platelet aggregation, U-46.619); 35 nM in test [4] (aggregation induced by arachidonic acid, read-out: IC 50 platelet aggregation, ARACHIDONIC ACID); 31.8 nM in test [2]. Also, the “Affinity: percent of [3H]SQ-29.548 specifically substituted by the examined compound, 10^-6M” value in test [1] is listed as 100%. Moreover, the “Affinity: percent of [3H]SQ-29.548 specifically substituted by the examined compound, 10^-7M” value in test [1] (compound 10^-7 M) amounted to 72.0%.
As to `O=C(O)COc1ccc(CCNS(=O)(=O)c2ccccc2)cc1` [SULOTROBAN, sulotroban, reference compound], the IC50 in test [3] was 830 nM; in test [4] (setting [5]), 10500 nM; in test [4] (setting [6]), 11700 nM; in test [2] it was 1600 nM. The inhibition at 1 µM in test [1] was 55.6%. For the same compound, in test [1], the inhibition at 0.1 µM was found to be 16.5%.
